Assay results reported in patent publication US20070032477A1, “Pteridine derivatives useful for making pharmaceutical compositions” (priority 2003, published 2007).
pIC50: −log10 of the molar value.

Assays:
[1] = system: production of TNF-α by PBMC in response to stimulation by LPS; test: TNF-α assay; assay type: cell-based, human; details: LPS 1 μg/ml, 72 hours, sandwich ELISA
Method: (§1) Peripheral blood mononuclear cells (herein referred as PBMC), in response to stimulation by lipopolysaccharide (hereinafter LPS), a gram-negative bacterial endotoxin, produce various […], in particular human TNF-α. Inhibition of the activation of PBMC can therefore be measured by the level of suppression of the production of TNF-α by PBMC in response to stimulation by LPS.
(§2) Such inhibition measurement was performed as follows: PBMC were isolated from heparinized peripheral blood by density gradient centrifugation over Lymphoprep (commercially available from Nycomed, Norway). LPS was then added to the PMBC suspension in complete medium (10^6 cells/ml) at a final concentration of 1 μg/ml. The pteridine derivative to be tested was added at different concentrations (0.1 μM, 1 μM and 10 μM) and the cells were incubated at 37° C. for 72 hours in 5% CO2. The supernatants were collected, then TNF-α concentrations were measured with respectively an anti-TNF-α antibody in a sandwich ELISA (Duo Set ELISA human TNFα, commercially available from R&D Systems, United Kingdom). The calorimetric reading of the ELISA was measured by a Multiskan RC plate reader (commercially available from ThermoLabsystems, Finland) at 450 nm (reference wavelength: 690 nm). Data analysis was performed with Ascent software 2.6. (also from ThermoLabsystems, Finland): a standard curve (recombinant human TNFα) was drawn and the amount (pg/ml) of each sample on the standard curve was determined.
The % suppression of human TNFα production by the pteridine derivatives of the invention (drugs) was calculated using the formula: [formula]

[2] = system: production of IL-1 β by PBMC in response to stimulation by LPS; test: IL-1 β assay; assay type: cell-based, human; details: LPS 1 μg/ml, 72 hours, sandwich ELISA
Method: as §1, with “(LPS),” for “(hereinafter LPS),”, “IL-1 β.” for “TNF-α.”, “IL-1 β” for “TNF-α”
as §2, with “IL-1 β” for “TNF-α”, “with” for “with respectively”, “anti-IL-1 β” for “anti-TNF-α”, “ELISA.” for “ELISA (Duo Set ELISA human TNFα, commercially available from R&D Systems, United Kingdom).”, “IL-1 β)” for “TNFα)”
The % suppression of human IL-1 β by the pteridine derivatives (drugs) of this invention was calculated using the formula: [formula]

[3] = system: mixed lymphocyte reaction (PBMC with allogeneic PBMC or Eppstein-Barr Virus-transformed human B cells as stimulator cells); test: Mixed lymphocyte reaction (MLR) assay; assay type: cell-based; details: lowest concentration giving 50% suppression of the MLR; [3H]-thymidine
Method: Pteridine derivatives were first dissolved (10 mM) in dimethylsulfoxide (hereinafter referred as DMSO) and further diluted in culture medium before use for the following in vitro experiments. The commercially available culture medium consisted of RPMI-1640+10% foetal calf serum (FCS). Some pteridine derivatives described in the previous examples (as indicated in table 1) were tested in the following mixed lymphocyte reaction (MLR) assay.
Peripheral blood mononuclear cells (hereinafter referred as PBMC) were isolated from heparinized peripheral blood by density gradient centrifugation over Lymphoprep (Nycomed, Maorstua, Norway). Allogeneic PBMC or Eppstein-Barr Virus-transformed human B cells [commercially available under the trade name RPM11788 (ATCC name CCL156)] which strongly express B7-1 and B7-2 antigens were used as stimulator cells after irradiation with 30 Gy. MLR was performed in triplicate wells. After 5 days incubation at 37° C., 1 μCi [^3H]-thymidine was added to each cup. After a further 16 hours incubation, cells were harvested and counted in a […]. Inhibition of proliferation by a compound (drug) described in some of the previous examples was counted using the formula: [formula] wherein cpm is the thymidine count per minute. The MLR assay is regarded by those skilled in the art as an in vitro analogue of the transplant rejection since it is based on the recognition of allogeneic major histocompatibility antigens on the stimulator leukocytes, by responding lymphocytes.

| Compound | pIC50 [1] | pIC50 [2] | pIC50 [3] |
| --- | --- | --- | --- |
| 2-amino-4-(3-(piperazin-1-yl)-propionic acid ethyl ester)-6-(3,4-dimethoxyphenyl)pteridine [Example 134] | 7.15 | 5.92 |  |
| COc1ccc(-c2cnc3nc(N)nc(N4CCN(Cc5ccccc5)CC4)c3n2)cc1OC [Example 65, 2-amino-4-(N-benzylpiperazin-1-yl)-6-(3,4-dimethoxyphenyl)pteridine] | 7.02 | 5.46 |  |
| COc1ccc(-c2cnc3nc(N)nc(N4CCN(C(=O)COc5ccc(Cl)cc5)CC4)c3n2)cc1OC [Example 29] | 7.11 |  | 9.30 |
| COCCOC(=O)N1CCN(c2nc(N)nc3ncc(-c4ccc(OC)c(OC)c4)nc23)CC1 [Example 97] | 6.52 |  | 6.62 |
| 2-amino-4-(1-(2-diethylaminoethyl)-piperazino)-6-(3,4-dimethoxyphenyl)pteridine [Example 127] | 5.59 |  | 5.04 |
| COc1ccc(-c2cnc3nc(N)nc(N4CCN(Cc5c(Cl)cccc5Cl)CC4)c3n2)cc1OC [Example 137, 2-amino-4-[(2,6-dichlorobenzyl)piperazin-1-yl]-6-(3,4-dimethoxyphenyl)pteridine] | 6.15 |  | 5.12 |
| COc1ccc(-c2cnc3nc(N)nc(N4CCN(C(=O)OCc5ccccc5)CC4)c3n2)cc1OC [Example 48, 2-amino-4-[(N-benzyloxycarbonyl)-piperazin-1-yl]-6-(3,4-dimethoxy-phenyl)pteridine] | 7.10 |  | 6.52 |
| COc1ccc(-c2cnc3nc(N)nc(N4CCN(C(=O)c5ccc(Cl)c(Cl)c5)CC4)c3n2)cc1OC [Example 44, 2-amino-4-[N-(3,4-dichlorobenzoyl)-piperazin-1-yl]-6-(3,4-dimethoxy-phenyl)pteridine] | 6.15 |  | 6.70 |
| COc1ccc(-c2cnc3nc(N)nc(N4CCN(Cc5ccc(C(C)(C)C)cc5)CC4)c3n2)cc1OC [Example 144, 2-amino-4-((4-tert-butylbenzyl)piperazin-1-yl)-6-(3,4-dimethoxyphenyl)pteridine] | 6.15 |  | 5.37 |
| CCCCc1ccc(C(=O)N2CCN(c3nc(N)nc4ncc(-c5ccc(OC)c(OC)c5)nc34)CC2)cc1 [Example 18, 2-amino-4-[(N-4-butylbenzoyl)-piperazin-1-yl]-6-(3,4-dimethoxyphenyl)pteridine] | 7.05 |  | 6.52 |
| COc1ccc(-c2cnc3nc(N)nc(N4CCN(c5ccccc5OC)CC4)c3n2)cc1OC [Example 160, 2-amino-4-((2-methoxyphenyl)-piperazin-1-yl)-6-(3,4-dimethoxyphenyl)pteridine] | 6.38 |  | 5.42 |
| COc1ccc(-c2cnc3nc(N)nc(N4CCN(C(=O)c5ccccc5)CC4)c3n2)cc1OC [Example 11, 2-amino-4-(N-benzoylpiperazin-1-yl)-6-(3,4-dimethoxyphenyl)pteridine] | 6.40 |  | 6.40 |
| COc1ccc(-c2cnc3nc(N)nc(N4CCN(C(=O)Nc5ccc(C#N)cc5)CC4)c3n2)cc1OC [Example 102, 2-amino-4-(N-4-cyanophenylcarbamoyl-piperazin-1-yl)-6-(3,4-dimethoxyphenyl)pteridine] | 6.20 |  | 7.13 |
| COc1ccc(-c2cnc3nc(N)nc(N4CCN(C(=O)Nc5ccc(F)c(Cl)c5)CC4)c3n2)cc1OC [Example 106, 2-amino-4-(N-3-chloro-4-fluorophenylcarbamoyl-piperazin-1-yl)-6-(3,4-dimethoxyphenyl)pteridine] | 5.85 |  | 7.24 |
| 2-amino-6-(3,4-dimethoxyphenyl)-4-((tetrahydrofurfuryl)-piperazin-1-yl)pteridine [Example 169] | 6.52 |  | 6.10 |
| COc1ccc(-c2cnc3nc(N)nc(N4CCN(C(=O)N(c5ccccc5)c5ccccc5)CC4)c3n2)cc1OC [Example 39, 2-amino-4-[(N-diphenylcarbamoyl)-piperazin-1-yl]-6-(3,4-dimethoxy-phenyl)pteridine] | 6.10 |  | 6.15 |
| COc1ccc(-c2cnc3nc(N)nc(N4CCN(C(=O)c5ccc(F)cc5)CC4)c3n2)cc1OC [Example 32, 2-amino-4-[(N-p-fluorobenzoyl)-piperazin-1-yl]-6-(3,4-dimethoxyphenyl)pteridine] | 6.40 |  | 6.40 |
| COc1ccc(-c2cnc3nc(NCCc4ccccc4)nc(N)c3n2)cc1OC [Example 79, 2-phenylethylamino-4-amino-6-(3,4-dimethoxyphenyl)pteridine] | 5.01 |  | 5.39 |
| COc1ccc(-c2cnc3nc(N)nc(N4CCN(S(=O)(=O)Cc5ccccc5)CC4)c3n2)cc1OC [Example 43, 2-amino-4-[(N-benzylsulfonyl)-piperazin-1-yl]-6-(3,4-dimethoxyphenyl)pteridine] | 6.15 |  | 6.70 |
| COc1ccc(-c2cnc3nc(N)nc(N4CCN(C(=O)N(C)c5ccccc5)CC4)c3n2)cc1OC [Example 117, 2-amino-4-(N-methyl-N-phenyl-carbamoyl-piperazin-1-yl)-6-(3,4-dimethoxyphenyl)pteridine] | 7.30 |  | 7.14 |
| COc1ccc(-c2cnc3nc(N)nc(N4CCN(c5ccc([N+](=O)[O-])cc5C(F)(F)F)CC4)c3n2)cc1OC [Example 186, 2-amino-4-[2-trifluoromethyl-4-nitro-phenyl-piperazin-1-yl)-6-(3,4-dimethoxyphenyl)pteridine] | 6.40 |  | 5.30 |
| COc1ccc(-c2cnc3nc(N)nc(N4CCN(CCC#N)CC4)c3n2)cc1OC [Example 163, 2-amino-6-(3,4-dimethoxyphenyl)-4-(4-(3-propionitril)-piperazin-1-yl)pteridine] | 6.30 |  | 6.30 |
| COc1ccc(-c2cnc3nc(N)nc(N4CCN(C(=O)Oc5ccc(Cl)cc5)CC4)c3n2)cc1OC [Example 94] | 7.05 |  | 7.00 |
| COc1ccc(-c2cnc3nc(N)nc(N4CCN(C(=O)COCc5ccccc5)CC4)c3n2)cc1OC [Example 28, 2-amino-4-[(N-benzyloxyacetyl)-piperazin-1-yl]-6-(3,4-dimethoxyphenyl)pteridine] | 6.30 |  | 7.52 |
| COc1ccc(-c2cnc3nc(N)nc(N4CCN(C(=O)c5cccs5)CC4)c3n2)cc1OC [Example 13, 2-amino-4-[(N-2-thiophenecarbonyl)-piperazin-1-yl]-6-(3,4-dimethoxy-phenyl)pteridine] | 7.10 |  | 7.00 |
| COc1ccc(-c2cnc3nc(N)nc(N4CCN(C(=O)NCc5ccc(F)cc5)CC4)c3n2)cc1OC [Example 105, 2-amino-4-(N-4-fluorobenzylcarbamoyl-piperazin-1-yl)-6-(3,4-dimethoxyphenyl)pteridine] | 6.15 |  | 7.43 |
| COc1ccc(-c2cnc3nc(N)nc(N4CCN(C(=O)c5ccncc5)CC4)c3n2)cc1OC [Example 19, 2-amino-4-[(N-isonicotinoyl)-piperazin-1-yl]-6-(3,4-dimethoxyphenyl)pteridine] | 7.22 |  | 5.62 |
